{"source": "patent US12534436B2", "about": "“Disubstituted adamantyl derivative or pharmaceutically acceptable salt thereof, and pharmaceutical composition for suppressing cancer growth comprising same as active ingredient” (ONECUREGEN CO., LTD., priority 2020, dated 2026)", "key": {"HepG2 cells": {"system": "HepG2 cells", "assay": "HepG2 cell proliferation at different glucose concentrations", "format": "cell-based, human", "conditions": "low glucose (3 mM) versus high glucose (25 mM) medium (FIG. 5C)", "experimental": "The glycolytic function is activated in many cancer cells. Accordingly, it was investigated whether LW1564 (compound 21-3) affected cancer cell proliferation according to glucose concentration. […] Next, in order to investigate the combined effect of LW1564 (compound 21-3), […] on the proliferation of HepG2 cells, Combination Index (CI) and isobologram analysis were performed. The CI value quantitatively represents the correlation between two drugs through GI50 analysis indicating the cell proliferation suppression concentration, and synergistic, additive and antagonistic effects are defined as CI<1, CI=1 and CI>1."}, "[1]": {"system": "GLUT1, PDK1 and VEGF mRNA", "assay": "qPCR of HIF-1 target genes in HepG2 cells", "format": "cell-based, human", "conditions": "hypoxia, HepG2 cells (FIG. 2E)", "experimental": "Next, mRNA levels of HIF-1 target genes GLUT1, PDK1 and VEGF were measured. The primer sequences were Fwd 5′-TTTGGCTACAACACTGGAGTC-3′ (SEQ ID NO: 1) and Rev 5′-CATGCCCCCAACAGAAAAGAT-3′ (SEQ ID NO: 2) for GLUT1; Fwd 5′-CAGGACAGCCAATACAAGTGG-3′ (SEQ ID NO: 3) and Rev 5′-CATTACCCAGCGTGACATGAA-3′ (SEQ ID NO: 4) for PDK1; Fwd 5′-CCTTGCTGCTCTACCTCCAC-3′ (SEQ ID NO: 5) and Rev 5′-ATGATTCTGCCCTCCTCCTT-3′ (SEQ ID NO: 6) for VEGFA; and Fwd 5′-CATAGGAAGCTGGGAGCAAG-3′ (SEQ ID NO: 7) and Rev 5′-GCCCTCCAATCAGTCTTCTG-3′ (SEQ ID NO: 8) for RPL13A. […] Taken together, it was identified that LW1564 (compound 21-3) suppressed HIF-1α accumulation through stimulated proteasome degradation, thereby reducing the mRNA expression of the target gene."}, "HepG2 xenografted tumors": {"system": "HepG2 xenografted tumors", "assay": "HepG2 xenograft mouse model", "format": "in vivo, mice", "description": "In the HepG2 xenograft mouse model, the efficacy of LW1564 (compound 21-3) on tumor proliferation was investigated. All animal experiments were approved and performed according to the guidelines of the Institutional Animal Care and Use Committee of the Korea Research Institute of Bioscience & Biotechnology (Daejeon, Korea). Specific pathogen-free female nude mice (6 weeks old) were inoculated with HepG2 cells (1×10^7) subcutaneously on the right flank. When tumor volumes reached 100 to 150 mm^3, mice were randomly assigned to vehicle and LW1564 (compound 21-3) treatment groups (n=6). LW1564 (compound 21-3) (10 mg/kg) was administered intraperitoneally daily for 2 weeks. The tumor size was measured using a microcalliper, and the tumor volume was calculated using a standard volume: length×width^2×0.5. Significant differences between the two groups were determined by Student's t-test."}, "intracellular oxygen": {"system": "intracellular oxygen", "assay": "Intracellular oxygen with hypoxia probe MAR, HepG2 cells", "format": "cell-based, human", "conditions": "hypoxic conditions, 6 hours, 500 nM MAR (FIG. 3D)", "experimental": "Since a decrease in mitochondrial respiration means an increase in the amount of intracellular oxygen, it was evaluated whether the amount of intracellular oxygen increased using MAR, an azo-based hypoxia probe that produces fluorescence under hypoxic conditions. Under hypoxic states, HepG2 cells were cultured with LW1564 (compound 21-3) for 6 hours, stained with 500 nM MAR according to the manufacturer's instructions (Chou, T. C. Theoretical basis, experimental design, and computerized simulation of synergism and antagonism in drug combination studies. Pharmacol. Rev. 58, 621-681 (2006)), and analyzed with an IncuCyte ZOOM® system (Essen BioScience, MI, USA)."}, "[2]": {"system": "mitochondrial ETC complex I", "assay": "Mitochondrial respiration assay, complex I (malate/pyruvate)", "format": "cell-based, human", "conditions": "HepG2 cells, 100 μM LW1564 (FIG. 4B)", "experimental": "Compounds that suppress mitochondrial respiration promote degradation of HIF-1α by increasing cellular oxygen content. Accordingly, it was investigated whether LW1564 (compound 21-3) affected mitochondrial respiration by measuring the oxygen consumption rate (OCR). Oxygen consumption was measured using an Oxytherm Clark-type electrode system (Hansatech, Norfolk, UK) (Chou, T. C. Theoretical basis, experimental design, and computerized simulation of synergism and antagonism in drug combination studies. Pharmacol. Rev. 58, 621-681 (2006)). HepG2 cells (2×10^7) were cultured with 2 μM LW1564 (compound 21-3) for 6 hours, collected, and then OCR was measured at 37° C. for 5 minutes with a thermoregulated controlled circulating system. For […] studies, digitonin-permeabilised HepG2 cells (2×10^7) were read on a detection device containing 2 ml of respiratory buffer (0.25 M sucrose, 2 mM KH2PO4, 5 mM MgCl2, 1 mM EDTA, 1 mM ADP, 20 mM MOPS, pH 7.4). The following substrates, which provide electrons to the components in the ETC, were then added: 5 mM sodium pyruvate, 5 mM sodium malate, 5 mM sodium succinate, 5 mM L-ascorbic acid and 0.2 mM N,N,N,N-tetra methyl-p-phenylenediamine (TMPD). Complex I, III and IV inhibitors (rotenone, antimycin A and KCN, respectively) were added to a final concentration of 1 μM. […]"}, "[3]": {"system": "mitochondrial respiration", "assay": "Oxygen consumption rate (OCR), Oxytherm Clark-type electrode, HepG2 cells", "format": "cell-based, human", "conditions": "2 μM, 6 hours (FIG. 3A)", "experimental": "Compounds that suppress mitochondrial respiration promote degradation of HIF-1α by increasing cellular oxygen content. Accordingly, it was investigated whether LW1564 (compound 21-3) affected mitochondrial respiration by measuring the oxygen consumption rate (OCR). Oxygen consumption was measured using an Oxytherm Clark-type electrode system (Hansatech, Norfolk, UK) (Chou, T. C. Theoretical basis, experimental design, and computerized simulation of synergism and antagonism in drug combination studies. Pharmacol. Rev. 58, 621-681 (2006)). HepG2 cells (2×10^7) were cultured with 2 μM LW1564 (compound 21-3) for 6 hours, collected, and then OCR was measured at 37° C. for 5 minutes with a thermoregulated controlled circulating system. For […] studies, digitonin-permeabilised HepG2 cells (2×10^7) were read on a detection device containing 2 ml of respiratory buffer (0.25 M sucrose, 2 mM KH2PO4, 5 mM MgCl2, 1 mM EDTA, 1 mM ADP, 20 mM MOPS, pH 7.4). The following substrates, which provide electrons to the components in the ETC, were then added: 5 mM sodium pyruvate, 5 mM sodium malate, 5 mM sodium succinate, 5 mM L-ascorbic acid and 0.2 mM N,N,N,N-tetra methyl-p-phenylenediamine (TMPD). Complex I, III and IV inhibitors (rotenone, antimycin A and KCN, respectively) were added to a final concentration of 1 μM."}, "AMPK signaling": {"system": "AMPK signaling", "assay": "Western blot of AMPK/mTOR signaling in HepG2 cells", "format": "cell-based, human"}}}
{"smiles": "COc1cc2c(cc1OC)CN(C(=O)C13CC4CC(C1)CC(c1ccc(OCC(=O)N5CCN(Cc6ccc(C(F)(F)F)cc6)CC5)cc1)(C4)C3)CC2", "note": "[Compound 21c, 2-(4-(3-(6,7-Dimethoxy-1,2,3,4-tetrahydroisoquinoline-2-carbonyl)adamantan-1-yl)phenoxy)-1-(4-(4-(trifluoromethyl)benzyl)piperazin-1-yl) ethanone]", "values": [{"measurement": "cell proliferation suppression according to glucose concentration", "setting": "HepG2 cells", "value": "stronger cell proliferation suppression efficacy in cells in a medium with a low glucose concentration (3 mM)"}, {"measurement": "mRNA amount of HIF-1 target genes GLUT1, PDK1 and VEGF", "setting": "[1]", "value": "decreased the mRNA amount of GLUT1, PDK1 and VEGF"}, {"measurement": "weight of the tumors removed from the mice", "setting": "HepG2 xenografted tumors; 10 mg/kg intraperitoneally daily for 2 weeks (FIG. 6 middle)", "value": "reduced"}, {"measurement": "reduction in tumor size compared to the control group", "setting": "HepG2 xenografted tumors; 10 mg/kg intraperitoneally daily for 2 weeks, female nude mice (FIG. 6 left)", "value": 67, "unit": "%"}, {"measurement": "MAR fluorescence (hypoxia probe)", "setting": "intracellular oxygen", "value": "significantly reduced fluorescence"}, {"measurement": "oxygen consumption by complex I", "setting": "[2]", "value": "reduced oxygen consumption by complex I"}, {"measurement": "oxygen consumption rate (OCR)", "setting": "[3]", "value": "significantly suppressed OCR"}, {"measurement": "phosphorylation of mTOR", "setting": "AMPK signaling; concentration-dependent (FIG. 5A)", "value": "suppressed phosphorylation of mTOR"}, {"measurement": "phosphorylation of AMPK and ACC", "setting": "AMPK signaling; western blot (FIG. 5A)", "value": "promoted phosphorylation of AMPK and its downstream protein, Acetyl-CoA carboxylase (ACC)"}]}
